Values of other authors as cited in patent publication US20210353570A1, “Flutamide Microsphere-Based Arterial Embolization for Treating Prostate Disorders” (Biovena Science, LLC, priority 2018, published 2021).

Key:
[1] = not given; remark: listed apart in the source

solubility: low solubility
bioavailability ([1]; after oral administration): 49%
half-life ([1]; in vivo): 5 to 6 h
Structure (SMILES): CC(C)C(=O)Nc1ccc([N+](=O)[O-])c(C(F)(F)F)c1 [Flutamide, 4′-nitro-3′-trifluoromethyl-isobutyranilide]
